Experimental data published in patent US7879563B2, “Method of screening for a carnitine transporter agonist or antagonist and its uses” (Sanofi-Aventis Deutschland GmbH, priority 2004, dated 2011).
Each block holds one compound with its values, some of them ahead of it.

Assays:
Assay type in all cases: cell-based
[1] = target: T1, carnitine transporter comprising the amino acid sequence SEQ ID NO: 1 (Homo sapiens, UniProt Q695T7); test: Tracer flux transport measurement in Xenopus laevis oocytes injected with cRNA comprising SEQ ID NO: 4; conditions: for kinetics of transport compared with the substrate L-carnitine (FIG. 2): SEQ ID NO: 1, other substrates
T1 construct: expressed in transfected cells; host or cells: Xenopus laevis oocytes injected with cRNA
T1 sequence (Q695T7 1-634): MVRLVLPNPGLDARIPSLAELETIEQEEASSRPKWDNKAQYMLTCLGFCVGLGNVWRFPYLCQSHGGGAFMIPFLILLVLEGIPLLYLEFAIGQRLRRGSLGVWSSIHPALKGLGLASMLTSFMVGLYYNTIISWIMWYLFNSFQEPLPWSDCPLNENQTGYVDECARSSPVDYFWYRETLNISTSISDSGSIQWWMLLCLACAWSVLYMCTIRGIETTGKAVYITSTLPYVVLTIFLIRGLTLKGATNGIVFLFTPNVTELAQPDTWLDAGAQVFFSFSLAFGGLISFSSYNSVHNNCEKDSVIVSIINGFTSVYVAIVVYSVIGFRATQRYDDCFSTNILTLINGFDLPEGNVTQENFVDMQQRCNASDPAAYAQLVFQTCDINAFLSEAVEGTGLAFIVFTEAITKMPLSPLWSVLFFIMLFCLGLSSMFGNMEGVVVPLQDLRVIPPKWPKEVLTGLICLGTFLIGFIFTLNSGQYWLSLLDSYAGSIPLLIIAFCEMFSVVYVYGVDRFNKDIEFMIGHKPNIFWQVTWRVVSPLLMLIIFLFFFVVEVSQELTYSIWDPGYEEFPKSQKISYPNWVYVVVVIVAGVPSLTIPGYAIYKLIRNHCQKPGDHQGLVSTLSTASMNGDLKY
Protocol: The transport measurements of radioactively labeled compounds were executed using Xenopus laevis oocytes in the so-called “tracer flux method”, wherein the transport rate of substrates across the oocyte membrane into the cytosol is determined.
A Xenopus laevis oocyte was injected with a cRNA molecule comprising SEQ ID NO: 4.
Injected oocytes were kept in the culture medium ORi comprising gentamycin (50 mg/L) at 18° C. until the measurement of substrate uptake. Injured, acutely altered or later heavily damaged cells were discarded.
After 72 hours the oocyte was used for screening for a carnitine transporter agonist or antagonist.
Polysterene wells treated with oocyte homogenate were filled with 200 μl substrate solution. The oocytes were first washed two times with ORi solution, before use in the determination. 8 to 10 oocytes were used in a reaction mixture, in order to enable statistical evaluations. After the addition of the oocytes into the substrate solution the reaction mixture was softly mixed and incubated. The incubation was carried through at 22° C. for 1 hour. In order to stop the reaction, 1 ml of ice cold ORi was added.
The oocytes were washed four times in 15 ml ice cold ORi. Subsequently the oocytes were individually transferred into a 6 ml counter vial. The oocyte plasma membrane was disrupted by adding 100 μl […] solution. The vials were slightly agitated to disrupt the plasma membrane. The plasma membrane was completely disrupted by agitation for 30 to 45 minutes. The lysates were mixed with 2 ml of a scintillation cocktail. The radioactivity of the lysates was determined in a liquid scintillation counter comprising a correction for the luminescence and an external standard. Each vial was counted for 5 minutes.
In order to determine the substrate concentration after the dropping in of the oocytes, 2×10 μl solution were removed from the reaction mixture, 100 μl 5% SDS solution was added and evaluations with the counter were carried out. The obtained values were considered in the calculation of the transport rates.
For the determination of concentration-dependent substrate uptake serial dilutions of the investigated substrate were prepared and the radioactivity was distributed, such that in each reaction mixture between 10000 and 20000 cpm were counted in the supernatant. For the KM determination the substrate uptake was measured for 1 hour. In addition, the measurement was carried through using H2O-injected oocytes, in order to determine the background, i.e. the unspecific substrate uptake, for example mediated by diffusion or by endogenous transport proteins. The transport rates were calculated and graphically plotted against the substrate concentration and adapted mathematically according to the Michaelis-Menten equation.

[2] = target: T2, carnitine transporter comprising the amino acid sequence SEQ ID NO: 2 (Mus musculus, UniProt Q9D687); test: Transport activity of the mouse kidney and intestinal carnitine transporter
T2 sequence (Q9D687 1-634): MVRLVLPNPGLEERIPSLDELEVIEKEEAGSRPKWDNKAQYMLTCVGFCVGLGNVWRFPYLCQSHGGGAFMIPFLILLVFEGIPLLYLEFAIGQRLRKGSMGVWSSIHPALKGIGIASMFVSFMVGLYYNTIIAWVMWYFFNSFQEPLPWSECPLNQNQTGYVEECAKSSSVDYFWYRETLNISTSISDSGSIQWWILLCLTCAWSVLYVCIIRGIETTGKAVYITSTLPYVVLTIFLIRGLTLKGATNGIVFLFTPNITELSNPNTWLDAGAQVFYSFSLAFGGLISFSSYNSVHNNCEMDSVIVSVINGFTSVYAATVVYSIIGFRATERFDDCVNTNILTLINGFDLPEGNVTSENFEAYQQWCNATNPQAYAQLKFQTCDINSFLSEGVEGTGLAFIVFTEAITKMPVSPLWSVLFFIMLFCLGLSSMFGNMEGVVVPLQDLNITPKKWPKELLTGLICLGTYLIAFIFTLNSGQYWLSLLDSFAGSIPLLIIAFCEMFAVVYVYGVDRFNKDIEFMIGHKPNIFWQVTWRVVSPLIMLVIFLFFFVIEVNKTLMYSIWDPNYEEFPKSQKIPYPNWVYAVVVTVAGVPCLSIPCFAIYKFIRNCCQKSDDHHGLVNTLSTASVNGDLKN

[3] = target: T3, carnitine transporter comprising the amino acid sequence SEQ ID NO: 3 (Rattus norvegicus, UniProt Q2A865, F276Y/R32K/S186P); test: Transport activity of the rat kidney and intestinal carnitine transporter
T3 sequence (Q2A865 1-634 R32K/S186P/F276Y): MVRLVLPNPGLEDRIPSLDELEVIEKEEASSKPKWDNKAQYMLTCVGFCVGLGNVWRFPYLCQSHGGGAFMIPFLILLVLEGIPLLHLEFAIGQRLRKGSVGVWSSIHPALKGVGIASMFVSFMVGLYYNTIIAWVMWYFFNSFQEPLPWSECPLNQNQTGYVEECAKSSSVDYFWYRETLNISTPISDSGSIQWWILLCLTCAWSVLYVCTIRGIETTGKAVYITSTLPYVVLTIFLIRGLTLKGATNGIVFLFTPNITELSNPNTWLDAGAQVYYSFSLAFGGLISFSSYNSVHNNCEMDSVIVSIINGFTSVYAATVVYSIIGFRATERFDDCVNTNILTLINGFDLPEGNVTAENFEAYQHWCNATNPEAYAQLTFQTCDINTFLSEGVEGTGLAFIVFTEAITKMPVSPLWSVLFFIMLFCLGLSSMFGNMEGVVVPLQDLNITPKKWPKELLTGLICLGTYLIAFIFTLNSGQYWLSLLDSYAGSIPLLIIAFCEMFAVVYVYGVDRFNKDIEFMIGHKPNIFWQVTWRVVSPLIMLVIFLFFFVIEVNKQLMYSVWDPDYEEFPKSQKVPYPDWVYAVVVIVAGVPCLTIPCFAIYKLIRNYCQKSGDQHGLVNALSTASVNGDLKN

transport of the substrate ([1]; SEQ ID NO: 1): transport
kinetics of transport compared with the substrate L-carnitine (FIG. 2) [1]: comparable kinetics
transport of the substrate [2]: transport
transport of the substrate [3]: transport
Structure (SMILES): CN(CC(=O)O)C(=N)N [creatine]

Structure (SMILES): C[n+]1ccc(-c2ccccc2)cc1 [methylphenylpyridinium]
kinetics of transport compared with the substrate L-carnitine (FIG. 2) [1]: comparable kinetics

kinetics of transport compared with FIG. 2 (SEQ ID NO: 1) [2]: comparable kinetics
kinetics of transport compared with FIG. 2 (SEQ ID NO: 1) [3]: comparable kinetics
Structure (SMILES): C[N+](C)(C)C[C@H](O)CC(=O)[O-] [L-carnitine]

kinetics of transport compared with the substrate L-carnitine (FIG. 2) [1]: comparable kinetics
Structure (SMILES): NC[C@H](O)c1ccc(O)c(O)c1 [noradrenaline]

kinetics of transport compared with the substrate L-carnitine (FIG. 2) [1]: comparable kinetics
Structure (SMILES): NCCc1c[nH]c2ccc(O)cc12 [serotonin]
